Earlier results as cited in patent publication US4410516A, “1-N(αHydroxy-ω-aminoalkanoyl) derivatives of 5,3',4'-trideoxy- or 5,3', 4'-trideoxy-6'-N- methyl- or 5, 3', 4',6"-tetradeoxykannamyci B and production thereof” (Zaidan Hojin Biseibutsu Kagaku Kenkyu Kai, priority 1981, dated 1983).
“Also recorded” adds a separate entry of the source.

Tests used:
animals, including men = conditions: in words, other filings; cited from earlier work
bacteria = conditions: in words, earlier work / other filings; cited from earlier work
[1] = in words, other filings; cited from earlier work

Structure (SMILES) | acute toxicity (animals, including men) | antibacterial activity (bacteria) | oto-toxicity [1]
C[C@H]1O[C@H](O[C@@H]2[C@@H](O)[C@H](O[C@H]3O[C@H](CN)CC[C@H]3O)[C@@H](N)C[C@H]2NC(=O)[C@@H](O)CCN)[C@H](O)[C@@H](N)[C@@H]1O [3',4',6"-trideoxyamikacin] | low acute toxicity | useful antibacterial activity as high as that of amikacin | low oto-toxicity
C[C@H]1O[C@H](O[C@@H]2[C@@H](O)[C@H](O[C@H]3O[C@H](CN)[C@@H](O)C[C@H]3O)[C@@H](N)C[C@H]2NC(=O)[C@@H](O)CCN)[C@H](O)[C@@H](N)[C@@H]1O [3',6"-dideoxyamikacin] | low acute toxicity | useful antibacterial activity as high as that of amikacin | low oto-toxicity
NCC[C@H](O)C(=O)N[C@@H]1C[C@H](N)[C@@H](O[C@H]2O[C@H](CN)[C@@H](O)C[C@H]2O)[C@H](O)[C@H]1O[C@H]1O[C@H](CO)[C@@H](O)[C@H](N)[C@H]1O [3'-deoxyamikacin] | low acute toxicity | useful antibacterial activity as high as that of amikacin | low oto-toxicity
C[C@H]1O[C@H](O[C@@H]2[C@@H](O)[C@H](O[C@H]3O[C@H](CN)[C@@H](O)[C@H](O)[C@H]3O)[C@@H](N)C[C@H]2NC(=O)[C@@H](O)CCN)[C@H](O)[C@@H](N)[C@@H]1O [6"-deoxyamikacin] | low acute toxicity | useful antibacterial activity as high as that of amikacin | low oto-toxicity
NCC[C@H](O)C(=O)N[C@@H]1C[C@H](N)[C@@H](O[C@H]2O[C@H](CN)[C@@H](O)C[C@H]2O)C[C@H]1O[C@H]1O[C@H](CO)[C@@H](O)[C@H](N)[C@H]1O [5,3'-dideoxyamikacin] | low acute toxicity | useful antibacterial activity as high as that of amikacin | low oto-toxicity
NC[C@@H]1CC[C@@H](N)[C@@H](O[C@H]2C[C@@H](O[C@H]3O[C@H](CO)[C@@H](O)[C@H](N)[C@H]3O)[C@H](N)C[C@@H]2N)O1 [5,3',4'-trideoxykanamycin B] |  | less active than dibekacin; also recorded: exhibits no useful anti-bacterial activity | 
C[C@H]1O[C@H](O[C@@H]2C[C@H](O[C@H]3O[C@H](CN)[C@@H](O)C[C@H]3O)[C@@H](N)C[C@H]2NC(=O)[C@@H](O)CCN)[C@H](O)[C@@H](N)[C@@H]1O [5,3',6"-trideoxyamikacin] | low acute toxicity | useful antibacterial activity as high as that of amikacin | low oto-toxicity
NCC[C@H](O)C(=O)N[C@@H]1C[C@H](N)[C@@H](O[C@H]2O[C@H](CN)CC[C@H]2O)[C@H](O)[C@H]1O[C@H]1O[C@H](CO)[C@@H](O)[C@H](N)[C@H]1O [3',4'-dideoxyamikacin] | low acute toxicity | useful antibacterial activity as high as that of amikacin | low oto-toxicity
NC[C@@H]1CC[C@@H](N)[C@@H](O[C@H]2[C@H](O)[C@@H](O[C@H]3O[C@H](CO)[C@@H](O)[C@H](N)[C@H]3O)[C@H](N)C[C@@H]2N)O1 [Dibekacin, 3',4'-dideoxykanamycin B] |  | active against the kanamycin-sensitive bacteria and also against various kanamycin-resistant bacteria | 
C[C@@H]1C[C@H](N)[C@@H](O)[C@@H](O[C@@H]2[C@@H](O)[C@H](O[C@H]3O[C@H](CN)[C@@H](O)[C@H](O)[C@H]3O)[C@@H](N)C[C@H]2NC(=O)[C@@H](O)CCN)O1 [4",6"-dideoxyamikacin] | low acute toxicity | useful antibacterial activity as high as that of amikacin | low oto-toxicity
C[C@@H]1C[C@H](N)[C@@H](O)[C@@H](O[C@@H]2[C@@H](O)[C@H](O[C@H]3O[C@H](CN)CC[C@H]3O)[C@@H](N)C[C@H]2NC(=O)[C@@H](O)CCN)O1 [3',4',4",6"-tetradeoxyamikacin] | low acute toxicity | useful antibacterial activity as high as that of amikacin | low oto-toxicity
